Patent US8329914B2, “Cyclic benzimidazole derivatives useful as anti-diabetic agents” (Merck Sharp & Dohme Corp, priority 2008, dated 2012)

target: recombinant human AMPK complex 1 (containing α1β1γ1) (Homo sapiens, UniProt Q13131+Q9Y478); assay: AMPKSAMSF (in vitro AMPK activation assay); type: biochemical; settings: recombinant human AMPK complex 1 (α1β1γ1)
Procedure: The recombinant human AMPK complex 1 (containing α1β1γ1) was obtained from baculovirus expression system. Recombinant viruses were generated by cotransfection of AMPK/pBacPak9 clones with Baculogold baculovirus DNA (Pharmingen) in spodoptera frugiperda 21 cells according to the manufacturer's instructions. Each round of virus amplification was performed for 5 days in Grace's medium containing 10% serum. Virus that had been subjected to three rounds of amplification was used for all protein production procedures. To express the AMPK complex, sf21 cells were adapted to serum free medium (SF900 II, Invitrogen) by sequential dilution from serum containing stocks into SF900II medium and maintained in shaker flasks at 90 rpm at 27° C. The recombinant AMPK enzyme complex was produced by triple infection, one recombinant virus for each of the subunits, in sf21 cells under serum free conditions. Cells were infected in log phase, 1×10^6 cells/ml, at a multiplicity of infection of ˜5. Cells were harvested by centrifugation at 10,000×g for 15 minutes after 72 hours of infection with viruses. The insect cell pellet from 2 liters of culture was resuspended in 50 ml lysis buffer (20 mM Tris-HCl, 50 mM NaCl, 50 mM NaF, 30 mM Na PPi, 0.25 M sucrose, 10 mM ZnCl2, 2 mM DTT, 0.4 mg/ml digitonin) and subjected to two cycles of freeze-thaw lysis in a dry-ice ethanol bath. Insoluble material was removed by centrifugation at 10,000×g and the supernatant was fractionated with use of polyethylene glycol (PEG). The protein fraction precipitating between 2.5 and 6% PEG was used for further purification using a Blue-Sepharose step (Zhou et al, J. Clin Invest. 108, 1167-1174, 2001).
The total in vitro AMPK activation assay volume is 50 μl in a 96-well plate. The reaction mixture contained 100 μM ATP (0.5 μCi ^33P-ATP per reaction), and 50 μM SAMS (HMRSAMSGLHLVKRR) in a buffer (20 mM HEPES, pH 7.0, 5 mM MgCl2, 0.01% Brij35). The reaction was initiated with addition of the enzyme. After 30-minute incubation at 30° C., the reaction was stopped by addition of 80 μl 1% H3PO4. Aliquots (100 μl) were transferred to 96-well MultiScreen plates (MAPHNOB50; Millipore Corp., Bedford, Mass., USA). The plate was washed three times with 1% H3PO4 followed by detection in a Top-count. The counts per minute from the basal activity (the reaction without activator) was subtracted from each well and the data were expressed as % maximum AMP activation followed by EC50 calculation.

recombinant human AMPK complex 1 (containing α1β1γ1), sequence (Q13131 whole entry): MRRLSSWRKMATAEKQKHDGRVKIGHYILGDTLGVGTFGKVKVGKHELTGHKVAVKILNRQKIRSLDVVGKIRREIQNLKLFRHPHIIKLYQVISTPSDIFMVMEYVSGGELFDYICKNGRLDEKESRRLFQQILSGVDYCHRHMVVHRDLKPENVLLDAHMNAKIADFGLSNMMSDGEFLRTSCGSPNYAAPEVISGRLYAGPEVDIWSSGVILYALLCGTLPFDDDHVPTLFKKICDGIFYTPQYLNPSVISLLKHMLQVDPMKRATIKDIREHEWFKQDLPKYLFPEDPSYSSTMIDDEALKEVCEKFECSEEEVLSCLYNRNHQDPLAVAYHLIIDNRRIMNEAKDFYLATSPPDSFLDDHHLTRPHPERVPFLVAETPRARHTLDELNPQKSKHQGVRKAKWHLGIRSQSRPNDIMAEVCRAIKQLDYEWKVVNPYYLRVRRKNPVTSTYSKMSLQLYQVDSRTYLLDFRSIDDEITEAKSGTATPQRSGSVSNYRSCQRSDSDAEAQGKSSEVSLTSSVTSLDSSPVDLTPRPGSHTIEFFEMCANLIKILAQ
recombinant human AMPK complex 1 (containing α1β1γ1), sequence (Q9Y478 whole entry): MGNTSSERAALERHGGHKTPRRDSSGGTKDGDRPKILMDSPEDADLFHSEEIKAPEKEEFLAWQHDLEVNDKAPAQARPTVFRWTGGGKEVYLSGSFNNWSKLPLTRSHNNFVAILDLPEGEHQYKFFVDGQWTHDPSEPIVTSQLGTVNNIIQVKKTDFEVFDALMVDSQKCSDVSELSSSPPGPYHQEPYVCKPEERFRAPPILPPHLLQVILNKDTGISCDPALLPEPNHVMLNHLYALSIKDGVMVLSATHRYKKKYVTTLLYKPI
recombinant human AMPK complex 1 (containing α1β1γ1), sequence (P54619 whole entry partner): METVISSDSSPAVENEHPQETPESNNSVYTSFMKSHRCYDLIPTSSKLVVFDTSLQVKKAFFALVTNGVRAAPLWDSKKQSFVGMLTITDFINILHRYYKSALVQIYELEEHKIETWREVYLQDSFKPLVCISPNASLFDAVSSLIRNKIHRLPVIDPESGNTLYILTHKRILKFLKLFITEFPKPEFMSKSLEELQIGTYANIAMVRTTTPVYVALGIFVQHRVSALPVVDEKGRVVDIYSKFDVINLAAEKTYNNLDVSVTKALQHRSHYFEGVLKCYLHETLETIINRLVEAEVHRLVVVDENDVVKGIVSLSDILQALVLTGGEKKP

Row | SMILES | EC50 [nM]
1 | O=P(O)(O)CSc1nc2cc(-c3ccc4[nH]ccc4c3)c(Cl)cc2[nH]1 [Example 27] | 233
2 | Cn1ccc2cc(-c3cc4nc(SCP(=O)(O)O)[nH]c4cc3Cl)ccc21 [Example 28] | 58
3 | O=P(O)(O)CSc1nc2cc(-c3ccc(-c4cccnc4)cc3)c(Cl)cc2[nH]1 [Example 22, (5-chloro-6-(4-(pyridin-3-yl)phenyl)-1H-benzo[d]imidazol-2-ylthio)methyl-phosphonic acid] | 82
4 | O=P(O)(O)CSc1nc2cc(-c3ccc(-c4ccccc4)cc3)c(Cl)cc2[nH]1 [Example 29] | 137
5 | O=P(O)(O)CSc1nc2cc(C#Cc3ccc(F)cc3F)c(Cl)cc2[nH]1 [Example 8] | 184

same assay, conditions: recombinant human AMPK complex 1 (α1β1γ1); basal activity subtracted; read-out: % Maximum AMP Activation of human AMPK Complex 1

Row | SMILES | Emax [%]
6 | O=P(O)(O)CSc1nc2cc(C#Cc3cccc(F)c3)c(Cl)cc2[nH]1 [Example 4] | > 60
7 | O=P(O)(O)CSc1nc2cc(C#Cc3ccc(C(F)(F)F)cc3)c(Cl)cc2[nH]1 [Example 3] | > 60
8 | O=P(O)(O)CSc1nc2cc(C#Cc3ccccn3)c(Cl)cc2[nH]1 [Example 5] | > 60
9 | CCOP(=O)(CSc1nc2cc(-c3ccc(Br)cc3)c(Cl)cc2[nH]1)OCC [Example 13] | > 60
10 | O=P(O)(O)CSc1nc2cc(C#Cc3ccccc3O)c(Cl)cc2[nH]1 [Example 9] | > 60
11 | CSc1ccc(-c2cc3nc(SCP(=O)(O)O)[nH]c3cc2Cl)cc1 [Example 17, [6-Chloro-5-(4-methylsulfanyl-phenyl)-1H-benzoimidazol-2-ylsulfanylmethyl]-phosphonic acid] | > 60
12 | O=P(O)(O)CSc1nc2cc(C#Cc3ccc(CO)cc3)c(Cl)cc2[nH]1 [Example 7] | > 60
13 | Cc1cc(-c2cc3nc(SCP(=O)(O)O)[nH]c3cc2Cl)ccc1Cl [Example 12, [6-Chloro-5-(4-chloro-3-methyl-phenyl)-1H-benzoimidazol-2ylsulfanylmethyl]-phosphonic acid] | > 60
14 | O=P1(CSc2nc3cc(-c4ccc(-c5ccccc5)cc4)c(Cl)cc3[nH]2)OCCC(c2cccc(Cl)c2)O1 (centres unmarked) [Example 30, 5-Biphenyl-4-yl-6-chloro-2-[4-(3-chloro-phenyl)-2-oxo-2lambda*5*-[1,3,2]-dioxaphosphinan-2-ylmethylsulfanyl]-1H-benzoimidazole] | > 60
15 | O=P(O)(O)CSc1nc2cc(-c3ccc(Cl)c(F)c3)c(Cl)cc2[nH]1 [Example 15, [6-Chloro-5-(4-chloro-3-fluoro-phenyl)-1H-benzoimidazol-2-ylsulfanylmethyl]phosphonic acid] | > 60
16 | O=C(NC1CC1)c1cc(-c2cc3nc(SCP(=O)(O)O)[nH]c3cc2Cl)ccc1Cl [Example 18, [6-Chloro-5-(4-chloro-3-cyclopropylcarbamoyl-phenyl)-1H-benzoimidazol-2-ylsulfanylmethyl]-phosohonic acid] | > 60
17 | O=P(O)(O)CSc1nc2cc(C#Cc3ccccc3F)c(Cl)cc2[nH]1 [Example 6] | > 60
18 | O=[P@]1(CSc2nc3cc(-c4ccc(-c5ccccc5)cc4)c(Cl)cc3[nH]2)OCC[C@@H](c2ccncc2)O1 [Example 34, 5-Biphenyl-4-yl-6-chloro-2-(cis{5[1-yl-(4-pyridyl)]}-1-phosphono-2,6-dioxophosphinan-2-ylmethylsulfanyl)-1H-benzoimidazole] | > 60
19 | CC(C)(C)C(=O)OCOP(=O)(CSc1nc2cc(-c3ccc(-c4ccccc4)cc3)c(Cl)cc2n1COC(=O)C(C)(C)C)OCOC(=O)C(C)(C)C [Example 36, 2,2-Dimethyl-propionic acid[5-biphenyl-4-yl-6-chloro-1-(2,2-dimethylpropionyl-oxymethyl)-1H-benzoimidazol-2-ylsulfanylmethyl]-(2,2-dimethyl-propionyl-oxymethoxy)-phosohinoyloxymethyl ester] | > 60
20 | Cc1cncc(-c2ccc(-c3cc4nc(SCP(=O)(O)O)[nH]c4cc3Cl)cc2)c1 [Example 24, (5-chloro-6-[4-(5-methyl-pyridin-3-yl)-phenyl]-1H-benzo[d]imidazol-2-ylthio)methylphosphonic acid] | > 60
21 | O=P(O)(O)CSc1nc2cc(Cl)c(C#Cc3ccccc3)cc2[nH]1 [Example 1, (5-Chloro-6-phenylethynyl-1H-benzoimidazol-2-ylsulfanylmethyl)-phosphonic acid] | > 60
22 | O=P(O)(O)CSc1nc2cc(C#Cc3ccc(Cl)cc3)c(Cl)cc2[nH]1 [Example 11] | > 60
23 | COc1ccc(COP(=O)(O)CSc2nc3cc(-c4ccc(-c5ccccc5)cc4)c(Cl)cc3[nH]2)cc1F [Example 31, (5-Biphenyl-4-yl-6-chloro-1H-benzoimidazol-2-ylsulfanylmethyl)-phosphonic acid mono-(3-fluoro-4-methoxy-benzyl)ester] | > 60
24 | CN(C)C(=O)c1ccc(-c2cc3nc(SCP(=O)(O)O)[nH]c3cc2Cl)cc1 [Example 14, [6-Chloro-5-(4-dimethylcarbamoyl-phenyl)-1H-benzoimidazol-2-ylsulfanylmethyl]-phosphonic acid] | > 60
25 | CCC(=O)SCCOP(=O)(CSc1nc2cc(-c3ccc(-c4ccccc4)cc3)c(Cl)cc2[nH]1)OCCSC(=O)CC [Example 33, Thiopropionic acid S-{2-[(5-biphenyl-4-yl-6-chloro-1H-benzoimidazol-2-ylsulfanylmethyl)-(2-propionylsulfanyl-ethoxy)-phosphinoyloxy]-ethyl}ester] | > 60
26 | COc1ccc(-c2ccc(-c3cc4nc(SCP(=O)(O)O)[nH]c4cc3Cl)cc2)cn1 [Example 21, (5-chloro-6-(4-(6-methoxypyridin-3-yl)phenyl)-1H-benzo[d]imidazol-2-ylthio)methylphosphonic acid] | > 60
27 | O=P(O)(O)CCc1nc2cc(-c3ccc(-c4ccccc4)cc3)c(Cl)cc2[nH]1 [Example 26, [2-(Biphenyl-4-yl-6-chloro-1H-benzoimidazol-2-yl)-ethyl]-phosphonic acid] | > 60
28 | O=[P@@]1(CSc2nc3cc(-c4ccc(-c5ccccc5)cc4)c(Cl)cc3[nH]2)OCC[C@@H](c2ccncc2)O1 [Example 35, 5-Biphenyl-4-yl-6-chloro-2-(trans{5[1-yl-(4-pyridyl)]}-1-phosphono-2,6-dioxophosphinan-2-ylmethylsulfanyl)-1H-benzoimidazole] | > 60
29 | O=P(O)(O)CSc1nc2cc(-c3ccc(Cl)c(Cl)c3)c(Cl)cc2[nH]1 [Example 16, [6-Chloro-5-(3,4-dichloro-phenyl)-1H-benzoimidazol-2-ylsulfanylmethyl]-phosphonic acid] | > 60
30 | O=P(O)(O)CCCc1nc2cc(-c3ccc(-c4ccccc4)cc3)c(Cl)cc2[nH]1 [Example 25, [3-(5-Biphenyl-4-yl-6-chloro-1H-benzoimidazol-2-yl)-propyl]-phosphonic acid] | > 60
31 | O=P(O)(O)CSc1nc2cc(C#Cc3ccc(F)cc3)c(Cl)cc2[nH]1 [Example 2] | > 60
32 | CC(C)Oc1ccc(-c2ccc(-c3cc4nc(SCP(=O)(O)O)[nH]c4cc3Cl)cc2)cc1 [Example 23, (5-chloro-6-(4′-isopropoxy-biphenyl-4-yl)-1H-benzo[d]imidazol-2-ylthio)methylphosphonic acid] | > 60
33 | O=P(O)(O)CSc1nc2cc(C#Cc3cccnc3)c(Cl)cc2[nH]1 [Example 10] | > 60
34 | O=P(O)(O)CSc1nc2cc(-c3ccc(N4CCOCC4)cc3)c(Cl)cc2[nH]1 [Example 20, (5-chloro-6-(4-morpholinophenyl)-1H-benzo[d]imidazol-2-ylthio)methylphosphonic acid] | > 60
35 | CCC(=O)SCCOP(=O)(O)CSc1nc2cc(-c3ccc(-c4ccccc4)cc3)c(Cl)cc2[nH]1 [Example 32, Thiopropionic acid S-{2-[(5-biphenyl-4-yl-6-chloro-1H-benzoimidazol-2-ylsulfanylmethyl)-hydroxy-phosphinoyloxy]-ethyl}ester] | > 60

system: not given; assay: not given; settings: not given

Row | melting point [°C] | SMILES
36 | 210 to 215 | CC(C)(C)C(=O)OCOP(=O)(CSc1nc2cc(-c3ccc(-c4ccccc4)cc3)c(Cl)cc2n1COC(=O)C(C)(C)C)OCOC(=O)C(C)(C)C [Example 36, 2,2-Dimethyl-propionic acid[5-biphenyl-4-yl-6-chloro-1-(2,2-dimethylpropionyl-oxymethyl)-1H-benzoimidazol-2-ylsulfanylmethyl]-(2,2-dimethyl-propionyl-oxymethoxy)-phosohinoyloxymethyl ester]
37 | 210 to 215 | O=P(O)(O)CSc1nc2cc(Cl)c(C#Cc3ccccc3)cc2[nH]1 [Example 1, (5-Chloro-6-phenylethynyl-1H-benzoimidazol-2-ylsulfanylmethyl)-phosphonic acid]

system: ob/ob and db/db mice; assay: not given; settings: following 8 weeks of administration; cited from earlier work

Row | SMILES | blood glucose reduction [%]
38 | NC(=O)c1ncn([C@@H]2O[C@H](CO)[C@@H](O)[C@H]2O)c1N [AICAR] | 35
